Activity data for two compounds are collected here from ChEMBL document CHEMBL1275601, “Striking species difference in the contribution of concentrative nucleoside transporter 2 to nucleoside uptake between mouse and rat hepatocytes” (Antimicrob Agents Chemother, 2010).

Holding throughout (format): cell-based
For assay [1], the system named is Hepatocyte. Briefly: Transport through CNT3 in rat hepatocytes by oil filtration assay in presence of sodium ions in Kreb-henseleit buffer containing 100 uM NBMPR and thymidine.
In assay [2] the target is T1, Equilibrative nucleoside transporter 1 (Rattus norvegicus) (UniProt O54698).
T1 sequence (whole entry): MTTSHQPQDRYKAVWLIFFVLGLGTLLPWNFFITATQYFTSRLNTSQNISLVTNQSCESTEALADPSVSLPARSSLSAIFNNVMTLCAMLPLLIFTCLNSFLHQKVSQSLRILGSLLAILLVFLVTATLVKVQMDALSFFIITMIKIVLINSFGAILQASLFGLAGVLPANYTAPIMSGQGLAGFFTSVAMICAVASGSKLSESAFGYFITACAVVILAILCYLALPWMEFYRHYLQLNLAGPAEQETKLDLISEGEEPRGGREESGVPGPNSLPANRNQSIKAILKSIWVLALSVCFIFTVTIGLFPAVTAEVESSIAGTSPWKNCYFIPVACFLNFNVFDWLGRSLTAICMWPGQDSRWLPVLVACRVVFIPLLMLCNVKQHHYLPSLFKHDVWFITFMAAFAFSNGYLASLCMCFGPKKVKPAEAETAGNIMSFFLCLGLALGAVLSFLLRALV
Briefly: Transport through ENT1 in rat hepatocytes by oil filtration assay in presence of sodium ions in Kreb-henseleit buffer containing 100 uM NBMPR and 1 mM uridine. As to conditions: Hepatocyte.

Assay [3] deals with Hepatocyte. Briefly: Transport through CNT3 in rat hepatocytes by oil filtration assay in presence of sodium ions in Kreb-henseleit buffer containing 100 uM NBMPR and 1 mM uridine.
Assay [4] deals with T2, Equilibrative nucleoside transporter 2 (Rattus norvegicus) (UniProt O54699).
T2 sequence (whole entry): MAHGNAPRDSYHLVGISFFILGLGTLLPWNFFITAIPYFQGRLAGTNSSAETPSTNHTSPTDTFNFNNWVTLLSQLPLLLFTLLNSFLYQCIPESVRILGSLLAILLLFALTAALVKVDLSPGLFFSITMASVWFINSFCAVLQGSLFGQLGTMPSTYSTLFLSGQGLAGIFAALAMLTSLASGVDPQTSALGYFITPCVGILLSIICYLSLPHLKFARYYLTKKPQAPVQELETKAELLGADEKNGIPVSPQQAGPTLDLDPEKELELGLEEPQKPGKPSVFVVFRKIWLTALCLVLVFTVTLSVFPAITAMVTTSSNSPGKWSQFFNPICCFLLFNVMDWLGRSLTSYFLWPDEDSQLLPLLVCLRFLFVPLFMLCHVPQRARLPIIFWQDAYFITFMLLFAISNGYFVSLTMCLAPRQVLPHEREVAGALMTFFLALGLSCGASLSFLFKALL
Briefly: Transport through ENT2 in rat hepatocytes by oil filtration assay in presence 100 uM of transporter inhibitor NBMRP. As to conditions: Hepatocyte.

Assay [5] has as its target T3, Sodium/nucleoside cotransporter 2 (Mus musculus) (UniProt O88627).
T3 sequence (whole entry): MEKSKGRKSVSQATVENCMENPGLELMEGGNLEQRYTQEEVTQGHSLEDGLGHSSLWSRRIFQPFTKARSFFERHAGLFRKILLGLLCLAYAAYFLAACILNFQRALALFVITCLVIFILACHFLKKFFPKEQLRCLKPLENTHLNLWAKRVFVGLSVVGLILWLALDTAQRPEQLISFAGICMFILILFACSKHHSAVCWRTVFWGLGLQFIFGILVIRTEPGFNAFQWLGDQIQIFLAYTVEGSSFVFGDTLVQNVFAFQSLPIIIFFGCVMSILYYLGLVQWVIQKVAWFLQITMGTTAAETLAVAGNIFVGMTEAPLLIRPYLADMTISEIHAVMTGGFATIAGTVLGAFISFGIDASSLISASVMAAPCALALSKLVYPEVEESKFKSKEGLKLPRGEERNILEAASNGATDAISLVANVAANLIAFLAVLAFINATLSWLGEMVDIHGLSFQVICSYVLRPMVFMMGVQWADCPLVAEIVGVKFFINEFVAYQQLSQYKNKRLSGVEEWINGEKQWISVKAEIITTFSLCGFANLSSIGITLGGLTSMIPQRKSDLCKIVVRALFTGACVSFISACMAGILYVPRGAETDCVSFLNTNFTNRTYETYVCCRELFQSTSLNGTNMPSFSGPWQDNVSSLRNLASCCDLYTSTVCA
Briefly: Transport through CNT2 in mouse hepatocytes by oil filtration assay pre-incubated with 20 ng/mL rotenone for 15 mins and 2 mM 2-deoxyglucose for 10 mins at 37 degC in presence of sodium ions in Kreb-henseleit buffer containing 100 nM NBMPR. As to conditions: Hepatocyte.

For assay [6], the target named is T4, Sodium/nucleoside cotransporter 2 (Rattus norvegicus) (UniProt Q62773).
T4 sequence (whole entry): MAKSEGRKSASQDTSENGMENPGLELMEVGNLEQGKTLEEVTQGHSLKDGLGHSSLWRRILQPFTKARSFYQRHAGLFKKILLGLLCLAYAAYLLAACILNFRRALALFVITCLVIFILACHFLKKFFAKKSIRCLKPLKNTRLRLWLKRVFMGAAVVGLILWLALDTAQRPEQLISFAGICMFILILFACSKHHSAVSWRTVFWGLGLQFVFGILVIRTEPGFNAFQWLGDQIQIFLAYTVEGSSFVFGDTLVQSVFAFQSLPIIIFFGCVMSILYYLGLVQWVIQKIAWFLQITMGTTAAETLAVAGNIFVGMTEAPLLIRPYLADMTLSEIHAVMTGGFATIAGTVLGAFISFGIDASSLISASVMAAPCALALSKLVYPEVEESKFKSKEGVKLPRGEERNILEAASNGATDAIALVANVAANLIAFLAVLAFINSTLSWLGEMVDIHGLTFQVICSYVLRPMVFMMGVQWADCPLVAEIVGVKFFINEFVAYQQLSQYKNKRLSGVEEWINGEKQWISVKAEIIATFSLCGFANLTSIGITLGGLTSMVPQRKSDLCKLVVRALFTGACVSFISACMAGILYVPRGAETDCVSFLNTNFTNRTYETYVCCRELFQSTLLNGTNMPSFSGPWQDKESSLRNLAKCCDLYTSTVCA
Briefly: Transport through CNT2 in rat hepatocytes by oil filtration assay pre-incubated with 20 ng/mL rotenone for 15 mins and 2 mM 2-deoxyglucose for 10 mins at 37 degC in presence of sodium ions in Kreb-henseleit buffer containing 100 nM NBMPR. As to conditions: Hepatocyte.

The target of assay [7] is T3, Sodium/nucleoside cotransporter 2 (Mus musculus). Briefly: Transport through CNT2 in mouse hepatocytes by oil filtration assay pre-incubated with 20 ng/mL rotenone for 15 mins and 2 mM 2-deoxyglucose for 10 mins at 37 degC in Kreb-henseleit buffer. Particulars: Hepatocyte.
For assay [8], the target named is T4, Sodium/nucleoside cotransporter 2 (Rattus norvegicus). Briefly: Transport through CNT2 in rat hepatocytes by oil filtration assay pre-incubated with 20 ng/mL rotenone for 15 mins and 2 mM 2-deoxyglucose for 10 mins at 37 degC in Kreb-henseleit buffer. Particulars: Hepatocyte.

Active and inactive are the calls of the source. The rule behind the calls is not given here.

For the compound `NC(=O)c1ncn([C@@H]2O[C@H](CO)[C@@H](O)[C@H]2O)n1`, the outcome (in the assay with Hepatocyte [1]; in assay [2]; with Hepatocyte [3]; in assay [4]) was inactive. In addition, the outcome in assay [5], in assay [6], in assay [7] and in assay [8] was Active.

Regarding `Nc1ncnc2c1ncn2[C@@H]1O[C@H](CO)[C@@H](O)[C@H]1O`, the result (in the assay with Hepatocyte [1]; in assay [2]; in the assay on Hepatocyte [3]; in assay [4]) was inactive.
